Data taken from patent US20210255193A1, “LYSINE REACTIVE PROBES AND USES THEREOF” (The Scripps Research Institute, priority 2017, published 2021).

Tests used:
Assay in all cases: competitive isoTOP-ABPP
Assay type in all cases: binding
[1] = target: T1, PFKP 6-phosphofructokinase type C (Homo sapiens, UniProt Q01813); details: for R value (DMSO/fragment) for probe 1 labeling: Q01813_K688, 231 sol; for R value (DMSO/fragment) for probe 1 labeling / isoTOP-ABPP ratio (R) at liganded lysine Q01813_K688: 50 uM, in vitro; for isoTOP-ABPP ratio (R) at liganded lysine Q01813_K688: sol, 231; for isoTOP-ABPP ratio, lysine Q01813_K688: 50 uM_231_sol_in vitro
T1 construct: isoTOP-ABPP experiments performed in cell lysates (in vitro); endogenous in cells
T1 sequence (Q01813 1-784): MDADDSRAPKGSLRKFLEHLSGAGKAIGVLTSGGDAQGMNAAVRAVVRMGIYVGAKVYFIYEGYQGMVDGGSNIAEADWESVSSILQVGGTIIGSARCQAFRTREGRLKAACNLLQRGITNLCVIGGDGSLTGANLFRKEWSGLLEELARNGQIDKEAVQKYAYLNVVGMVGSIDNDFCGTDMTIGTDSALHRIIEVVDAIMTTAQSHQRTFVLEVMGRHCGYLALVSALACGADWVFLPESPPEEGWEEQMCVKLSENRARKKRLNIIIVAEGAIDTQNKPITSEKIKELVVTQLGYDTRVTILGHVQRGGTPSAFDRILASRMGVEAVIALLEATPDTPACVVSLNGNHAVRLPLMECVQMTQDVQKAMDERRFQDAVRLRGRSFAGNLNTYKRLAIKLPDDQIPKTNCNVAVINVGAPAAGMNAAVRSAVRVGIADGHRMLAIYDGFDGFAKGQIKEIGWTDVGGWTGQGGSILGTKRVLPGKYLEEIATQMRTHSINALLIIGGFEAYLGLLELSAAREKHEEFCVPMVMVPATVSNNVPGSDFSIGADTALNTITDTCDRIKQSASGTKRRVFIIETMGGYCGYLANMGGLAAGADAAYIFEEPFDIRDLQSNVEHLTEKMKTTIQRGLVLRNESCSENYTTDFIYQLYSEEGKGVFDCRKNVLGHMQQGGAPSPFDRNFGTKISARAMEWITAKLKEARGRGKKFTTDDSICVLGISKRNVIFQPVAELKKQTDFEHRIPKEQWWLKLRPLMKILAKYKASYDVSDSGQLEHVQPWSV
Description: (§1) In vitro covalent fragment treatment for isoTOP-ABPP. All compounds were made up as solutions in DMSO (100×) and were used at a final concentration of 50 μM for activated esters and 100 μM for guanidinylating agents. For each profiling sample, 0.5 ml of lysate was treated with 5 μl of the 100× compound stock solution or 5 μl of DMSO. Samples were treated with activated esters for
(§2) STP-alkyne labeling and click chemistry. For concentration-dependent reactivity measurements by isoTOP-ABPP, 0.5 ml proteome aliquots were treated at ambient temperature with 1 mM STP-alkyne 1 (5 μl of 100 mM stock in DMSO) and 0.1 mM STP alkyne 1 (5 μl of 10 mM stock in DMSO), respectively. For competitive isoTOP-ABPP, after in vitro fragment treatment (detailed above), the samples were labeled for 1 h at ambient temperature with 0.1 mM STP-alkyne 1 (5 μl of 10 mM stock in DMSO). Samples were conjugated by copper-mediated azide-alkyne cycloaddition (CuAAC) to either the light (1 mM STP-alkyne or fragment treated) or heavy (0.1 mM STP-alkyne or DMSO treated) TEV tags (10 μl of 5 mM stocks in DMSO, final concentration=100 μM) using tris(2-carboxyethyl)phosphine hydrochloride
(§3) R value calculation and processing. The ratios of light and heavy MS1 peaks for each unique peptide were quantified with a CIMAGE software using default parameters (3 MS1 acquisitions per peak and signal to noise threshold set to 2.5). For reactivity measurements by isoTOP-ABPP, the R value was calculated from the ratio of MS1 peak areas, comparing the 1 mM STP alkyne sample (light TEV tag) with the 0.1 mM STP alkyne sample (heavy TEV tag). For competitive isoTOP-ABPP, the R value was calculated from the ratio of MS1 peak areas, comparing the DMSO treated sample (heavy TEV tag) with the compound treated sample (light TEV tag). […] Ratios for unique peptide entries are calculated for each experiment; overlapping peptides with the same modified lysine (for example, different charge states, MudPIT chromatographic steps or tryptic termini) are grouped together and the median ratio is reported as the final ratio (R). The peptide ratios reported by CIMAGE were further filtered to ensure the removal or correction of low-quality ratios in each individual data set. The quality filters applied were the following: removal of half tryptic peptides; for ratios with high standard deviations from the median (90% of the median or above) the lowest ratio was taken instead of the median; removal of peptides with R=20 and only a single MS2 event triggered during the elution of the parent ion; manual annotation of all the peptides with ratios of 20, removing any peptides with low quality elution profiles that remained after the previous curation steps (only done for competitive isoTOP-ABPP).
(§4) Cross-data processing for fragment screening. For compound treated samples, biological replicates of the same condition were averaged, if the standard deviation was below 60% of the mean; otherwise, for lysines with at least one R value <4 for a particular compound, the lowest value of the ratio set was taken. For lysines, where all R values for a particular compound were ≥4, the average was reported. For peptides containing several possible modified lysines, the lysine with the highest number of quantification events was used for analysis and the remaining, redundant peptides were reported as alternative modification sites. Peptides included in the aggregate dataset (those used for further bioinformatics and statistical analyses) were required to have been quantified in 2 experiments for competitive isoTOP-ABPP. Lysines were categorized as liganded, if they had at least one ratio R≥4 (hit fragments). For liganded lysines with R=20 for all liganding events, lysines were required to have been quantified with R=20 in two separate experiments and were further required to have been quantified with R<20 in one additional experiment.

[2] = target: T2, POLR2L DNA-directed RNA polymerases I, II, and III subunit (Homo sapiens, UniProt P62875); details: for R value (DMSO/fragment) for probe 1 labeling: P62875_K67, 231 sol; for R value (DMSO/fragment) for probe 1 labeling / isoTOP-ABPP ratio (R) at liganded lysine P62875_K67: 50 uM, in vitro; for isoTOP-ABPP ratio (R) at liganded lysine P62875_K67: sol, 231; for isoTOP-ABPP ratio, lysine P62875_K67: 50 uM_231_sol_in vitro
T2 construct: isoTOP-ABPP experiments performed in cell lysates (in vitro); endogenous in cells; host or cells: soluble proteome of human cancer cell lines (MDA-MB-231, Ramos, Jurkat)
Description: as §1, §2, §3, §4

[3] = target: T3, DYNC1H1 Cytoplasmic dynein 1 heavy chain 1 (Homo sapiens, UniProt Q14204); details: for R value (DMSO/fragment) for probe 1 labeling: Q14204_K1649, 231 sol; for R value (DMSO/fragment) for probe 1 labeling / isoTOP-ABPP ratio (R) at liganded lysine Q14204_K1649: 50 uM, in vitro; for isoTOP-ABPP ratio (R) at liganded lysine Q14204_K1649: sol, 231; for isoTOP-ABPP ratio, lysine Q14204_K1649: 50 uM_231_sol_in vitro
T3 construct: isoTOP-ABPP experiments performed in cell lysates (in vitro); endogenous in cells; host or cells: soluble proteome of human cancer cell lines (MDA-MB-231, Ramos, Jurkat)
Description: as §1, §2, §3, §4

[4] = target: T4, CUL2 Cullin-2 (Homo sapiens, UniProt Q13617); details: for R value (DMSO/fragment) for probe 1 labeling: Q13617_K489, 231 sol; for isoTOP-ABPP ratio, lysine Q13617_K489: 50 uM_231_sol_in vitro
T4 construct: isoTOP-ABPP experiments performed in cell lysates (in vitro); endogenous in cells; host or cells: soluble proteome of human cancer cell lines (MDA-MB-231, Ramos, Jurkat)
T4 sequence (Q13617 whole entry, the tested form may be a part): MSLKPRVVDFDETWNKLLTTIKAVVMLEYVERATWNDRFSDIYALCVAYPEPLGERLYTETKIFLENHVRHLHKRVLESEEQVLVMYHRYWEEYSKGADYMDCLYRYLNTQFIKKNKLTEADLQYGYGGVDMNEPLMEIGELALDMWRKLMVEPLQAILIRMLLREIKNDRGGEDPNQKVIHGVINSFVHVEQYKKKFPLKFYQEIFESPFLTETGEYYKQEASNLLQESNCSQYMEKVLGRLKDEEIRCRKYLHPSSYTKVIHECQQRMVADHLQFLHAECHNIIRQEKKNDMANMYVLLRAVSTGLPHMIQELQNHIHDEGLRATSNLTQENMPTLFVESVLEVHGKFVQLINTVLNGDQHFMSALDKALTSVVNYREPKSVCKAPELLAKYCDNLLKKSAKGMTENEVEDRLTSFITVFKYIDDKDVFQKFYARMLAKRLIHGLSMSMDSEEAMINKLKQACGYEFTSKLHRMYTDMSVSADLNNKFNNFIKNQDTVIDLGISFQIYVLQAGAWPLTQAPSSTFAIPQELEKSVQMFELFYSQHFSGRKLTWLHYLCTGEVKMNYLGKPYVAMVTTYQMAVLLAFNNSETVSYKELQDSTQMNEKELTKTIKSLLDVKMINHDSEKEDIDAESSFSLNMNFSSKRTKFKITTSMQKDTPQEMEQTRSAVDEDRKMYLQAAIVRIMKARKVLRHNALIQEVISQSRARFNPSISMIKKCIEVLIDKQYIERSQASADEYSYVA
Description: as §1, §2, §3, §4

[5] = target: T5, UCHL5 Ubiquitin carboxyl-terminal hydrolase isozyme L5 (Homo sapiens, UniProt Q9Y5K5); details: for R value (DMSO/fragment) for probe 1 labeling: Q9Y5K5_K323, 231 sol; for R value (DMSO/fragment) for probe 1 labeling / isoTOP-ABPP ratio (R) at liganded lysine Q9Y5K5_K323: 50 uM, in vitro; for isoTOP-ABPP ratio (R) at liganded lysine Q9Y5K5_K323: sol, 231; for isoTOP-ABPP ratio, lysine Q9Y5K5_K323: 50 uM_231_sol_in vitro
T5 construct: endogenous in cells; host or cells: MDA-MB-231 (soluble fraction of lysate)
T5 sequence (Q9Y5K5 1-329): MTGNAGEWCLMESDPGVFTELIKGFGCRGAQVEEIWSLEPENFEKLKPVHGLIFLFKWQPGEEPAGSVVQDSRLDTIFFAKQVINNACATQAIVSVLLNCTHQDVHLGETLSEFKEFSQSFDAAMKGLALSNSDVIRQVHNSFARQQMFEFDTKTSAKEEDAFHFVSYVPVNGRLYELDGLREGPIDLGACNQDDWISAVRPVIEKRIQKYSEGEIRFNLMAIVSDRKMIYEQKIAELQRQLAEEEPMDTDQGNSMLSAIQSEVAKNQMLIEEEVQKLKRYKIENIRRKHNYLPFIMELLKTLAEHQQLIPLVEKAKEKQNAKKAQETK
Description: as §1, §2, §3, §4

Row | SMILES | R value (DMSO/fragment) for probe 1 labeling [1] | R value (DMSO/fragment) for probe 1 labeling [2] | R value (DMSO/fragment) for probe 1 labeling [3] | R value (DMSO/fragment) for probe 1 labeling ([4]; 50 uM, in vitro) | R value (DMSO/fragment) for probe 1 labeling [5] | isoTOP-ABPP ratio, lysine Q01813_K688 [1] | isoTOP-ABPP ratio, lysine P62875_K67 [2] | isoTOP-ABPP ratio, lysine Q14204_K1649 [3] | isoTOP-ABPP ratio, lysine Q13617_K489 [4] | isoTOP-ABPP ratio, lysine Q9Y5K5_K323 [5] | isoTOP-ABPP ratio (R) at liganded lysine Q01813_K688 [1] | isoTOP-ABPP ratio (R) at liganded lysine P62875_K67 [2] | isoTOP-ABPP ratio (R) at liganded lysine Q14204_K1649 [3] | isoTOP-ABPP ratio (R) at liganded lysine Q9Y5K5_K323 [5] | further results
1 | O=C(Oc1ccc([N+](=O)[O-])cc1[N+](=O)[O-])C(c1ccccc1)(c1ccccc1)c1ccccc1 [fragment 42, 2,4-Dinitrophenyl 2,2,2-triphenylacetate] | – | – | – | – | – | – | – | – | – | – | 1.0 | 1.0 | 0.8 | 1.0 | –
2 | CC(C)(C)OC(=O)NCCCC(=O)Oc1ccc([N+](=O)[O-])cc1[N+](=O)[O-] [fragment 41, 2,4-Dinitrophenyl 4-((tert-butoxycarbonyl)amino)butanoate] | – | – | – | – | – | – | – | – | – | – | 4.9 | 2.6 | 1.0 | 1.0 | isoTOP-ABPP ratio (R) at liganded lysine Q13617_K489 ([4]; 50 uM, in vitro, sol, 231): 1.0
3 | NC(=O)c1cc(C(F)(F)F)cc(C(F)(F)F)c1 [fragment 51, reference compound] | – | – | – | – | – | 0.9 | 1.0 | 0.7 | 1.1 | 1.0 | – | – | – | – | –

Second part, led by results:

Row | R value (DMSO/fragment) for probe 1 labeling [1] | R value (DMSO/fragment) for probe 1 labeling [2] | R value (DMSO/fragment) for probe 1 labeling [3] | R value (DMSO/fragment) for probe 1 labeling ([4]; 50 uM, in vitro) | R value (DMSO/fragment) for probe 1 labeling [5] | isoTOP-ABPP ratio, lysine Q01813_K688 [1] | isoTOP-ABPP ratio, lysine P62875_K67 [2] | isoTOP-ABPP ratio, lysine Q14204_K1649 [3] | isoTOP-ABPP ratio, lysine Q13617_K489 [4] | isoTOP-ABPP ratio, lysine Q9Y5K5_K323 [5] | SMILES | isoTOP-ABPP ratio (R) at liganded lysine Q01813_K688 [1] | isoTOP-ABPP ratio (R) at liganded lysine P62875_K67 [2] | isoTOP-ABPP ratio (R) at liganded lysine Q14204_K1649 [3] | isoTOP-ABPP ratio (R) at liganded lysine Q9Y5K5_K323 [5] | further results
4 | 1.5 | 1.0 | 1.0 | 0.8 | 1.1 | – | – | – | – | – | O=C(CCc1cn(-c2ccccc2)nc1-c1ccccc1)Oc1c(F)c(F)c(F)c(F)c1F [fragment 19, Pentafluorophenyl 3-(1,3-diphenyl-1H-pyrazol-4-yl)propanoate] | – | – | – | – | –
5 | 1.1 | 0.8 | 1.4 | 0.9 | 1.0 | – | – | – | – | – | O=C(Oc1c(F)c(F)c(F)c(F)c1F)c1cc(C(F)(F)F)cc(C(F)(F)F)c1 [fragment 21, Pentafluorophenyl 3,5-bis(trifluoromethyl)benzoate] | – | – | – | – | –
6 | – | – | – | – | – | 1.0 | 1.0 | 0.9 | 0.8 | 1.4 | O=C(Oc1c(F)c(F)c(C(F)(F)F)c(F)c1F)c1cc(C(F)(F)F)cc(C(F)(F)F)c1 [fragment 47, 2,3,5,6-Tetrafluoro-4-(trifluoromethyl)phenyl 3,5-bis(trifluoromethyl)benzoate] | – | – | – | – | –
